According to patent US11229707B2, “Promoting immune responses” (National Institute of Biological Sciences, Beijing, priority 2018, dated 2022):
Where two headings read alike, the source gives them in different places. Blank lines part the entries; values can stand above or below the molecule they belong to.

What was measured:
[1] = target: alpha-kinase 1 (ALPK1) (Homo sapiens, UniProt Q96QP1); experiment: ALPK1 activation (kinase domain phosphorylation of TIFA); assay type: biochemical
[2] = test system: innate immune responses in mice; experiment: Mouse dorsal air pouch model of acute inflammation (neutrophil recruitment, multiplex immunoassay for 36 cytokines); assay type: in vivo; conditions: for proinflammatory cytokines and chemokines in air pouches (IL-6, TNFα, IP-10, MCP-1/3, IFNγ, GM-CSF, MIP-1α and β, RANTES): air-pouch washes, compared with saline control; for neutrophil recruitment into the air pouch: injection into air pouch; for level of GRO-α/KC/CXCL1, IP-10 and MCP-1 in the sera: sera of injected mice
From the text: To investigate whether ADP-Hep alone could stimulate innate immune responses in vivo, a mouse dorsal air pouch model established to assess acute inflammation was employed (Gaudet et al. Science 348, 1251-1255 (2015).
We then performed a multiplex immunoassay for 36 cytokines in both the air-pouch washes and the sera of injected mice. […] Thus, ADP-Hep but not HBP alone can potently activate innate immune responses in mice.
To confirm that 1-ADP-heptoses and 1-ADP-heptose-7-phosphates can stimulate innate immune responses in vivo, a mouse dorsal air pouch model established to assess acute inflammation was employed (Gaudet, et al. Science 348, 1251-1255 (2015).
Injection of 1-ADP-heptoses and 1-ADP-heptose-7-phosphates into the air pouch induces neutrophil recruitment into the pouch. […] 1-ADP-heptoses and 1-ADP-heptose-7-phosphates also increase the level of keratinocyte-derived chemokine (GRO-a/KC/CXCL1), IP-10 and MCP-1 in the sera.

[3] = test system: NF-κB in 293T cells; experiment: NF-κB activation in 293T cells, luciferase reporter activity; assay type: cell-based
[4] = test system: B16-OVA melanoma cells; experiment: B16-OVA tumor growth, posttumor intratumor treatment; assay type: in vivo, C57BL/6N mice; conditions: 0.5 mg/mouse intratumor injection on day 8, 11, 14, 17
Procedure: FIG. 1D and FIG. 1E. […] C57BL/6N mice (n=6 mice per group) were injected subcutaneously with 2×10^5 B16-OVA melanoma cells on day 0. ADP-heptose (0.5 mg/mouse) was administered on day 8, 11, 14, and 17 after tumor inoculation by intratumor injection. Tumor volume (D) and tumor weight (E).

[5] = test system: MC38 colorectal adenocarcinoma cells; experiment: MC38 tumor growth, posttumor treatment with checkpoint blockade; assay type: in vivo, C57BL/6N mice; conditions: 0.5 mg/mouse intratumor combined with anti-PD-1 antibody 40 ug/mouse intraperitoneal, day 13-28
Procedure: FIG. 1F. […] C57BL/6N mice (n=6 mice per group) were injected subcutaneously with 2×10^5 MC38 colorectal adenocarcinoma cells on day 0. ADP-heptose (0.5 mg/mouse, intratumor injection) and anti-PD-1 antibody (40 ug/mouse, intraperitoneal injection) was administered on day 13, 16, 19, 22, 25, and 28 after tumor inoculation.

[6] = test system: THP-1 and 293T cells; experiment: Host cytosol entry, NF-kB activation and cytokine induction in THP-1 and 293T cells; conditions: for cytokines induction (such as interleukin-8): THP-1 and 293T cells, compound added on its own
[7] = test system: TIFA; experiment: TIFA phosphorylation in 293T cells stably expressing EGFP-TIFA, anti-pT9-TIFA immunoblot; assay type: cell-based; conditions: 5 μM for 5 hours
Procedure: FIG. 1B. […] 293T cells stably expressing EGFP-TIFA were treated with ADP-heptose analogs (5 μM) for 5 hours, and analyzed by anti-pT9-TIFA immunoblot.

[8] = test system: ovalbumin (OVA)-specific IgG; experiment: Adjuvant activity in vivo: OVA immunization, serum OVA-specific IgG by ELISA; conditions: C57BL/6N mice, intramuscular, 10 μg OVA mixed with 0.5 mg/mouse; after 21 days
Procedure: FIG. 1C. […] C57BL/6N mice (8 mice per group) were immunized intramuscularly with 10 μg OVA mixed with PBS, alum (2 mg/mouse), or ADP-heptose (0.5 mg/mouse). After 21 days, serum titers of OVA-specific IgG were measured by ELISA.

[9] = target: ALPK1 N-terminal domain (NTD) (Homo sapiens, UniProt Q96QP1); experiment: Direct binding to ALPK1 N-terminal domain
Sequence of ALPK1 N-terminal domain (NTD) (Q96QP1 1-473 limits assumed): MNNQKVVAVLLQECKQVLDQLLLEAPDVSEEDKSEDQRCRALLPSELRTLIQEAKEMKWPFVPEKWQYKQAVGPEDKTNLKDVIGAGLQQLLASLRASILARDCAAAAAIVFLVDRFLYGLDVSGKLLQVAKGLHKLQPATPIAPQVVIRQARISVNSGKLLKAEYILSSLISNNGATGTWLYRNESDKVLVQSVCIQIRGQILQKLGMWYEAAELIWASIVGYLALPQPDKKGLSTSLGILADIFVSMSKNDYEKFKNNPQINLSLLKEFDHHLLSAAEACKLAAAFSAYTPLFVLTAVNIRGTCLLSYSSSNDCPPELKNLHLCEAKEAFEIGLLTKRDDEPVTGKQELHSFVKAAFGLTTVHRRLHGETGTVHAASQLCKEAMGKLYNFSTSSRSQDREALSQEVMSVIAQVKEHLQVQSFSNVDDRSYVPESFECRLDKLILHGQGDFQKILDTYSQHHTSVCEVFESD

[10] = test system: THP-1 and 293T cells

Sequence of alpha-kinase 1 (ALPK1) (Q96QP1 whole entry, the tested form may be a part): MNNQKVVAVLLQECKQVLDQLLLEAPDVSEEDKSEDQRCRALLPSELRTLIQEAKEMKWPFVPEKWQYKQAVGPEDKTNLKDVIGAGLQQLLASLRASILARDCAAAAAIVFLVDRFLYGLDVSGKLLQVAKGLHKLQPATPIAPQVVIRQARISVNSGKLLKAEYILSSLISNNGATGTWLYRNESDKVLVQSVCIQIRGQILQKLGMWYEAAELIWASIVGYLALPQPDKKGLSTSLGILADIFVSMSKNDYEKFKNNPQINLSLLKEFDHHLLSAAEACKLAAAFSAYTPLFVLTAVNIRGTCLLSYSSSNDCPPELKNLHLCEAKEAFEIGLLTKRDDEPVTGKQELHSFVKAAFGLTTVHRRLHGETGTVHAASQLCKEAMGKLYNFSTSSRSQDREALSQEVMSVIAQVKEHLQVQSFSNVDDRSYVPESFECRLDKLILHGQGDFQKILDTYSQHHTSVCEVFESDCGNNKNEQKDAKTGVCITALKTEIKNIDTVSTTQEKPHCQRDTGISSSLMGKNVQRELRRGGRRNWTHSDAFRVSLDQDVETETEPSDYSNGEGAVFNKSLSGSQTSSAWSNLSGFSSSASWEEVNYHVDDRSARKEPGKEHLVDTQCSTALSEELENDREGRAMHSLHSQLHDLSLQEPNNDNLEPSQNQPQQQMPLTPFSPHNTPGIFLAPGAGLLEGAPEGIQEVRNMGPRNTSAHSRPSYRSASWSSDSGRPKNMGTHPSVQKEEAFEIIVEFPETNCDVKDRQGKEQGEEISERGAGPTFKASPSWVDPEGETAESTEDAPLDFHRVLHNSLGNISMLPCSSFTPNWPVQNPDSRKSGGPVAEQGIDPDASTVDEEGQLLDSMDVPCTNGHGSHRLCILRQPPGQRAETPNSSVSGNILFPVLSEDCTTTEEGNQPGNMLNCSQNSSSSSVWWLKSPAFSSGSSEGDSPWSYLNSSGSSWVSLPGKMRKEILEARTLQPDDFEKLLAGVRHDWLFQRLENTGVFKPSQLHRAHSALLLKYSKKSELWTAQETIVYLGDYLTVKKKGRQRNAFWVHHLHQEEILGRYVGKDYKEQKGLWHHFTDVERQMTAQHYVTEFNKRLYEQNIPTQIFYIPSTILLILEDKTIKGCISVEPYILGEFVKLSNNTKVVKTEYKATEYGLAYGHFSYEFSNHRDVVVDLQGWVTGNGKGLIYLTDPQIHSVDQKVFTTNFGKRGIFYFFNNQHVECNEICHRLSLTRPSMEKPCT

ALPK1 activation [1]: ALPK1 activation-competent
Structure (SMILES): Nc1ncnc2c1ncn2C1OC(COP(=O)(O)OP(=O)(O)OC2OC(C(O)COP(=O)(O)O)C(O)C(O)C2O)C(O)C1O (stereo not shown) [ADP-Heptose 7-P]

Structure (SMILES): Nc1ncnc2c1ncn2[C@@H]1O[C@H](COP(=O)(O)OP(=O)(O)O[C@@H]2O[C@H]([C@@H](O)CO)[C@@H](O)[C@H](O)[C@@H]2O)[C@@H](O)[C@H]1O [ADP-LD-Hep]
proinflammatory cytokines and chemokines in air pouches (IL-6, TNFα, IP-10, MCP-1/3, IFNγ, GM-CSF, MIP-1α and β, RANTES) [2]: highly elevated | neutrophil recruitment into the air pouch [2]: induced massive neutrophil recruitment into the pouch | level of GRO-α/KC/CXCL1, IP-10 and MCP-1 in the sera [2]: increased the level

Structure (SMILES): Nc1ncnc2c1ncn2[C@@H]1O[C@H](COP(=O)(O)OP(=O)(O)O[C@@H]2O[C@H]([C@H](O)CO)[C@@H](O)[C@H](O)[C@@H]2O)[C@@H](O)[C@H]1O [ADP-heptose, 1-ADP-β-D-manno-Heptose]
inflammatory responses in mice after injection ([2]; mice, Alpk1-dependent): induces robust inflammatory responses in mice | NF-κB activation (luciferase reporter activity) [3]: activated NF-κB in 293T cells in a dose-dependent manner | B16-OVA tumor growth (tumor volume, tumor weight) [4]: Inhibition of B16-OVA tumor growth | ALPK1 activation [1]: stimulates the NTD-bound C-terminal kinase domain to phosphorylate TIFA and induce its oligomerization | MC38 tumor growth [5]: Inhibition of MC38 tumor growth | cytokines induction (such as interleukin-8) [6]: cytokines induction | entry into host cytosol on its own ([6]; host cells): could enter host cytosol on its own | TIFA phosphorylation (anti-pT9-TIFA immunoblot) [7]: induced TIFA phosphorylation | serum ovalbumin (OVA)-specific IgG production (adjuvant activity) [8]: exhibited adjuvant activity in vivo to elevate the serum ovalbumin (OVA)-specific IgG production | direct binding to ALPK1 N-terminal domain [9]: directly binds

Structure (SMILES): Nc1ccn(C2OC(COP(=O)(O)OP(=O)(O)OC3OC(C(O)CO)C(O)C(O)C3O)C(O)C2O)c(=O)n1 (stereo not shown) [CDP-heptose]
NF-κB activation (luciferase reporter activity) [3]: activated NF-κB in 293T cells in a dose-dependent manner | TIFA phosphorylation (anti-pT9-TIFA immunoblot) [7]: induce TIFA phosphorylation

Structure (SMILES): Nc1nc2c(ncn2[C@@H]2O[C@H](COP(=O)(O)OP(=O)(O)O[C@H]3O[C@H]([C@H](O)CO)[C@@H](O)[C@H](O)[C@@H]3O)[C@@H](O)[C@H]2O)c(=O)[nH]1 [GDP-heptose]
NF-κB activation (luciferase reporter activity) [3]: activated NF-κB in 293T cells in a dose-dependent manner | TIFA phosphorylation (anti-pT9-TIFA immunoblot) [7]: induce TIFA phosphorylation

entry into host cytosol on its own [10]: cell-impermeable
Structure (SMILES): O=P(O)(O)OC[C@@H](O)[C@H]1O[C@@H](OP(=O)(O)O)[C@@H](O)[C@@H](O)[C@@H]1O [HBP, D-glycero-β-D-manno Heptose 1,7-bisphosphate, reference compound]
proinflammatory cytokines and chemokines in air pouches (IL-6, TNFα, IP-10, MCP-1/3, IFNγ, GM-CSF, MIP-1α and β, RANTES) [2]: did not affect local and systemic productions | neutrophil recruitment into the air pouch [2]: failed to increase the number of air-pouch neutrophils | level of GRO-α/KC/CXCL1, IP-10 and MCP-1 in the sera [2]: did not affect local and systemic productions | cytokines induction (such as interleukin-8) [6]: not | NF-κB activation ([6]; transfected into host cells): NF-κB activation observed

Structure (SMILES): O=c1ccn(C2OC(COP(=O)(O)OP(=O)(O)OC3OC(C(O)CO)C(O)C(O)C3O)C(O)C2O)c(=O)[nH]1 (stereo not shown) [UDP-heptose]
NF-κB activation (luciferase reporter activity) [3]: activated NF-κB in 293T cells in a dose-dependent manner | TIFA phosphorylation (anti-pT9-TIFA immunoblot) [7]: induce TIFA phosphorylation

Structure (SMILES): Nc1ncnc2c1ncn2C1CC(O)C(COP(=O)(O)OP(=O)(O)OC2OC(C(O)CO)C(O)C(O)C2O)O1 (stereo not shown) [dADP-heptose]
NF-κB activation (luciferase reporter activity) [3]: activated NF-κB in 293T cells in a dose-dependent manner | TIFA phosphorylation (anti-pT9-TIFA immunoblot) [7]: induce TIFA phosphorylation

Structure (SMILES): Nc1ccn(C2CC(O)C(COP(=O)(O)OP(=O)(O)OC3OC(C(O)CO)C(O)C(O)C3O)O2)c(=O)n1 (stereo not shown) [dCDP-heptose]
NF-κB activation (luciferase reporter activity) [3]: activated NF-κB in 293T cells in a dose-dependent manner | TIFA phosphorylation (anti-pT9-TIFA immunoblot) [7]: induce TIFA phosphorylation

Structure (SMILES): Nc1nc2c(ncn2C2CC(O)C(COP(=O)(O)OP(=O)(O)OC3OC(C(O)CO)C(O)C(O)C3O)O2)c(=O)[nH]1 (stereo not shown) [dGDP-heptose]
NF-κB activation (luciferase reporter activity) [3]: activated NF-κB in 293T cells in a dose-dependent manner | TIFA phosphorylation (anti-pT9-TIFA immunoblot) [7]: induce TIFA phosphorylation

Structure (SMILES): Cc1cn(C2CC(O)C(COP(=O)(O)OP(=O)(O)OC3OC(C(O)CO)C(O)C(O)C3O)O2)c(=O)[nH]c1=O (stereo not shown) [dTDP-heptose]
NF-κB activation (luciferase reporter activity) [3]: activated NF-κB in 293T cells in a dose-dependent manner | TIFA phosphorylation (anti-pT9-TIFA immunoblot) [7]: induce TIFA phosphorylation
